{"source": "patent US20250099474A1", "about": "(priority 2022, published 2025)", "system": "SARS-CoV-2", "assay": "Phase 2/3 study, Phase 2b Part: score of 12 COVID-19 symptoms per unit time", "assay_type": "in vivo, human", "method": "The primary endpoints of Phase 2b Part were the time-weighted average change in the total score of 12 COVID-19 symptoms per unit time from the start of the first administration (Day 1) to 120 hours (Day 6), and the change from baseline in SARS-CoV-2 virus titer on Day 4, in mild/moderate SARS-CoV-2-infected patients, and the clinical improvement and the antiviral effect of the active drug were confirmed.\nThe administration of the active drug is repeated oral administration once a day for 5 days. The 375/125 mg group received 375 mg on Day 1 as a loading dose and 125 mg on Days 2 to 5 as a maintenance dose. The 750/250 mg group received 750 mg on Day 1 as a loading dose and 250 mg on Days 2 to 5 as a maintenance dose.\nThe primary efficacy endpoints of Phase 2b Part for mild/moderate SARS-CoV-2-infected patients were the time-weighted average change in the total score of 12 COVID-19 symptoms per unit time from the start of the first administration (Day 1) to 120 hours (Day 6), and the change from baseline in SARS-CoV-2 virus titer on Day 4. The total score of 12 COVID-19 symptoms is the sum of the scores determined by evaluation in four grades (0: none, 1: mild, 2: moderate, 3: severe) in the subject daily records for each of the 12 COVID-19 symptoms (low energy and tiredness, muscle or body aches, headache, chills or shivering, feeling hot or feverish, stuffy and runny nose, sore throat, cough, shortness of breath (difficulty breathing), nausea, vomiting, diarrhea).\nPairwise comparison was performed between each active drug dose group and the placebo group. […] Pairwise comparison was performed between each active drug dose group and the placebo group.\nThe results of classifying the twelve COVID-19 symptoms shown in the above (2-a) into 5 types (acute symptoms, major clinical symptoms, respiratory symptoms, systemic symptoms, and gastrointestinal symptoms) and analyzing the same (ITT population) are shown in the following table. • Acute symptoms: sore throat, cough, feeling hot and feverish • Major clinical symptoms: stuffy and runny nose, sore throat, cough, chills or shivering, feeling hot or feverish • Respiratory symptoms: stuffy and runny nose, sore throat, cough, shortness of breath (difficulty breathing) • Systemic symptoms: low energy and tiredness, muscle or body aches, headache, chills or shivering, feeling hot or feverish • Gastrointestinal symptoms: nausea, vomiting, diarrhea", "key": {"[1]": {"settings": "ITT population, 375/125 mg group"}, "[2]": {"settings": "ITT population, 750/250 mg group"}}}
{"molecule": "Cn1cnc(Cn2c(=O)[nH]/c(=N\\c3cc4cn(C)nc4cc3Cl)n(Cc3cc(F)c(F)cc3F)c2=O)n1", "note": "[(6E)-6-[(6-chloro-2-methyl-2H-indazol-5-yl)imino]-3-[(1-methyl-1H-1,2,4-triazol-3-yl)methyl]-1-[(2,4,5-trifluorophenyl)methyl]-1,3,5-triazinane-2,4-dione]", "values": [{"measurement": "Respiratory symptoms sub-total score as compared with the placebo group", "setting": "375/125 mg group (p=0.0153) and 750/250 mg group (p=0.0032)", "value": "a significant improving effect was observed"}, {"measurement": "Change up to 120 hours in total score of 12 COVID-19 symptoms per unit time as compared with the placebo group", "setting": "375/125 mg group and 750/250 mg group", "value": "a numerical decrease tendency was observed as compared with the placebo group, but a statistically significant difference was not observed"}, {"measurement": "Change from baseline up to 120 hours in sub-total score per unit time, acute symptoms: Adjusted mean value by covariance analysis (standard error)", "setting": "[1]", "value": "−2.36 (0.10)"}, {"measurement": "Change from baseline up to 120 hours in sub-total score per unit time, acute symptoms: Difference of adjusted mean value from that of placebo group (standard error)", "setting": "[1]", "value": "−0.20 (0.12)"}, {"measurement": "Change from baseline up to 120 hours in sub-total score per unit time, acute symptoms: Maximum value", "setting": "[1]", "value": 0.45}, {"measurement": "Change from baseline up to 120 hours in sub-total score per unit time, acute symptoms: Mean value", "setting": "[1]", "value": "−2.52"}, {"measurement": "Change from baseline up to 120 hours in sub-total score per unit time, acute symptoms: Median value", "setting": "[1]", "value": "−2.55"}, {"measurement": "Change from baseline up to 120 hours in sub-total score per unit time, acute symptoms: Minimum value", "setting": "[1]", "value": "−6.19"}, {"measurement": "Change from baseline up to 120 hours in sub-total score per unit time, gastrointestinal symptoms: Adjusted mean value by covariance analysis (standard error)", "setting": "[1]", "value": "−1.27 (0.14)"}, {"measurement": "Change from baseline up to 120 hours in sub-total score per unit time, gastrointestinal symptoms: Difference of adjusted mean value from that of placebo group (standard error)", "setting": "[1]", "value": "0.06 (0.18)"}, {"measurement": "Change from baseline up to 120 hours in sub-total score per unit time, gastrointestinal symptoms: Maximum value", "setting": "[1]", "value": "−0.16"}, {"measurement": "Change from baseline up to 120 hours in sub-total score per unit time, gastrointestinal symptoms: Mean value", "setting": "[1]", "value": "−1.39"}, {"measurement": "Change from baseline up to 120 hours in sub-total score per unit time, gastrointestinal symptoms: Median value", "setting": "[1]", "value": "−0.99"}, {"measurement": "Change from baseline up to 120 hours in sub-total score per unit time, gastrointestinal symptoms: Minimum value", "setting": "[1]", "value": "−5.80"}, {"measurement": "Change from baseline up to 120 hours in sub-total score per unit time, major clinical symptoms: Adjusted mean value by covariance analysis (standard error)", "setting": "[1]", "value": "−3.34 (0.14)"}, {"measurement": "Change from baseline up to 120 hours in sub-total score per unit time, major clinical symptoms: Difference of adjusted mean value from that of placebo group (standard error)", "setting": "[1]", "value": "−0.34 (0.17)"}, {"measurement": "Change from baseline up to 120 hours in sub-total score per unit time, major clinical symptoms: Maximum value", "setting": "[1]", "value": 0.55}, {"measurement": "Change from baseline up to 120 hours in sub-total score per unit time, major clinical symptoms: Mean value", "setting": "[1]", "value": "−3.56"}, {"measurement": "Change from baseline up to 120 hours in sub-total score per unit time, major clinical symptoms: Median value", "setting": "[1]", "value": "−3.33"}, {"measurement": "Change from baseline up to 120 hours in sub-total score per unit time, major clinical symptoms: Minimum value", "setting": "[1]", "value": "−9.76"}, {"measurement": "Change from baseline up to 120 hours in sub-total score per unit time, respiratory symptoms: Adjusted mean value by covariance analysis (standard error)", "setting": "[1]", "value": "−2.09 (0.12)"}, {"measurement": "Change from baseline up to 120 hours in sub-total score per unit time, respiratory symptoms: Difference of adjusted mean value from that of placebo group (standard error)", "setting": "[1]", "value": "−0.37 (0.15)"}, {"measurement": "Change from baseline up to 120 hours in sub-total score per unit time, respiratory symptoms: Maximum value", "setting": "[1]", "value": 1.30}, {"measurement": "Change from baseline up to 120 hours in sub-total score per unit time, respiratory symptoms: Mean value", "setting": "[1]", "value": "−2.28"}, {"measurement": "Change from baseline up to 120 hours in sub-total score per unit time, respiratory symptoms: Median value", "setting": "[1]", "value": "−1.99"}, {"measurement": "Change from baseline up to 120 hours in sub-total score per unit time, respiratory symptoms: Minimum value", "setting": "[1]", "value": "−6.44"}, {"measurement": "Change from baseline up to 120 hours in sub-total score per unit time, systemic symptoms: Adjusted mean value by covariance analysis (standard error)", "setting": "[1]", "value": "−3.31 (0.14)"}, {"measurement": "Change from baseline up to 120 hours in sub-total score per unit time, systemic symptoms: Difference of adjusted mean value from that of placebo group (standard error)", "setting": "[1]", "value": "0.15 (0.18)"}, {"measurement": "Change from baseline up to 120 hours in sub-total score per unit time, systemic symptoms: Maximum value", "setting": "[1]", "value": 1.80}, {"measurement": "Change from baseline up to 120 hours in sub-total score per unit time, systemic symptoms: Mean value", "setting": "[1]", "value": "−3.71"}, {"measurement": "Change from baseline up to 120 hours in sub-total score per unit time, systemic symptoms: Median value", "setting": "[1]", "value": "−3.18"}, {"measurement": "Change from baseline up to 120 hours in sub-total score per unit time, systemic symptoms: Minimum value", "setting": "[1]", "value": "−14.30"}, {"measurement": "Change from baseline up to 120 hours in sub-total score per unit time, acute symptoms: Adjusted mean value by covariance analysis (standard error)", "setting": "[2]", "value": "−2.50 (0.10)"}, {"measurement": "Change from baseline up to 120 hours in sub-total score per unit time, acute symptoms: Difference of adjusted mean value from that of placebo group (standard error)", "setting": "[2]", "value": "−0.33 (0.12)"}, {"measurement": "Change from baseline up to 120 hours in sub-total score per unit time, acute symptoms: Maximum value", "setting": "[2]", "value": 0.52}, {"measurement": "Change from baseline up to 120 hours in sub-total score per unit time, acute symptoms: Mean value", "setting": "[2]", "value": "−2.63"}, {"measurement": "Change from baseline up to 120 hours in sub-total score per unit time, acute symptoms: Median value", "setting": "[2]", "value": "−2.71"}, {"measurement": "Change from baseline up to 120 hours in sub-total score per unit time, acute symptoms: Minimum value", "setting": "[2]", "value": "−6.93"}, {"measurement": "Change from baseline up to 120 hours in sub-total score per unit time, gastrointestinal symptoms: Adjusted mean value by covariance analysis (standard error)", "setting": "[2]", "value": "−1.08 (0.14)"}, {"measurement": "Change from baseline up to 120 hours in sub-total score per unit time, gastrointestinal symptoms: Difference of adjusted mean value from that of placebo group (standard error)", "setting": "[2]", "value": "0.25 (0.18)"}, {"measurement": "Change from baseline up to 120 hours in sub-total score per unit time, gastrointestinal symptoms: Maximum value", "setting": "[2]", "value": 0.50}, {"measurement": "Change from baseline up to 120 hours in sub-total score per unit time, gastrointestinal symptoms: Mean value", "setting": "[2]", "value": "−1.13"}, {"measurement": "Change from baseline up to 120 hours in sub-total score per unit time, gastrointestinal symptoms: Median value", "setting": "[2]", "value": "−0.79"}, {"measurement": "Change from baseline up to 120 hours in sub-total score per unit time, gastrointestinal symptoms: Minimum value", "setting": "[2]", "value": "−5.78"}, {"measurement": "Change from baseline up to 120 hours in sub-total score per unit time, major clinical symptoms: Adjusted mean value by covariance analysis (standard error)", "setting": "[2]", "value": "−3.42 (0.14)"}, {"measurement": "Change from baseline up to 120 hours in sub-total score per unit time, major clinical symptoms: Difference of adjusted mean value from that of placebo group (standard error)", "setting": "[2]", "value": "−0.42 (0.17)"}, {"measurement": "Change from baseline up to 120 hours in sub-total score per unit time, major clinical symptoms: Maximum value", "setting": "[2]", "value": 0.39}]}
